System: WT (TRPM2+/+) and TRPM2 knockout (TRPM2-/-) mice, tMCAO
Assay: tMCAO in WT and TRPM2 knockout mice given autophagy inhibitor
Type: in vivo, mouse
Details: FIG. 12
Description: After isoflurane inhalation gas anesthesia of 22-25 g male WT mice (TRPM2+/+) and TRPM2 knockout (TRPM2−/−) mice, the fiber-optic probes of laser Doppler flowmeter were fixed to the skull of the animals with glue and used to monitor the cerebral blood flow of the middle cerebral artery (MCA) supplying cortex.
The mice were fixed in the supine position, and the middle of the neck was dehaired and routinely sterilized with 75% alcohol. […] Only animals whose blood flow values decreased to 20% of the basic value were selected according to the blood flow data monitored by the flowmeter. […]
The mice were decapitated 24 h after ischemia-reperfusion, the coronal planes of the brains were cut into brain slices of about 2 mm thickness uniformly. […] The processed brain slices were photographed using a macro camera, and Image J image analysis software was used to calculate and count the cerebral infarct volume, and the measured results are shown in FIG. 11. […]

Cn1cnc(N)c2ncnc1-2 [Compound 3-MA]
cerebroprotective effect of reduced TRPM2 levels during cerebral ischemia reperfusion: reversed
